In patent US10344017B2, “Pyrrolcarboxamide derivatives for the inhibition of ERK5” (CANCER RESEARCH TECHNOLOGY LIMITED, priority 2014, dated 2019):
Like-named read-outs stand apart in the source and are kept apart here.

Columns and labels:
[1] = tested on: ERK5 (HA-ERK5 wt activated by EGFP-MEK5D, MEF2D-Gal4/Gal4-Luc reporter) in HEK293 cells; experiment: Dual-luciferase reporter assay (ERK5 reporter), reverse-transfected HEK293 cells; details: Homo sapiens, HEK293, read-out: ERK 5 Reporter Assay
Method: Dual-Luciferase Reporter Assay
Trypsinizing of Adherent Cell Colonies
Cells were regularly passaged in order to maintain optimum colony sizes on plates. In order to do this, and to harvest cells for use in the dual-luciferase reporter assay, adherent cells were lifted from tissue culture dishes. Cell media was removed via aspiration, and the cell monolayer was washed with phosphate buffered saline (PBS) solution (10 mL), which was then aspirated.
Reverse Transfection of HEK293 Cells
Preparation of EGFP Control (C3) Working Solution (for 1×96 Well Plate)
Preparation of HEK293 Cells for Reverse Transfection
Trypsinized HEK293 cells were re-suspended in 19 mL of fresh cell media and counted using haemocytometry. Cells were then diluted with fresh cell media to achieve a final cell concentration of 2×10^5 cells/mL. 1237.5 μL and 7425 μL of this cell media was added to the C3 and 5D working solutions respectively. 100 μL of the transfected cells were then aliquoted into the appropriate wells in a 96-well opaque sided tissue culture plate, and incubated at 37° C. for 6 h.
Addition of Compounds to HEK293 Cells
4 compounds was assayed per 96-well plate. For each compound, 1 mL of growth media was added to eight 1.5 mL Eppendorf® tubes. 6 μL of DMSO was added to two tubes for C3 and blank 5D wells, and 6 μL of the relevant compound stock solution was added to the 6 remaining tubes. […] Solutions of drug in media were thoroughly mixed, and 100 μL of the relevant compound was transferred (in triplicate) to the 96-well plate containing transfected HEK293 cells using an electronic multichannel pipette with variable tip spacing. Sealed plates were incubated at 37° C. for 24 h. Final compound concentrations were as follows; 30 μM, 10 μM, 3 μM, 1 μM and 0.3 μM.
15 mL of 1× passive lysis buffer (PLB) was prepared using 5×PLB (Dual-Luciferase Reporter Assay System, Promega® E1960), diluting with H2O. Assay plates prepared were removed from the incubator and the growth media removed by aspiration.

[2] = target: T1, ERK5 (Homo sapiens, UniProt Q13164); experiment: ERK5 IMAP assay (fluorescence polarisation); format: biochemical
T1 construct: made in house

[3] = average (e.g. geometric mean) where more than one data point, read-out: ERK5 IC50

T1 sequence (Q13164 whole entry): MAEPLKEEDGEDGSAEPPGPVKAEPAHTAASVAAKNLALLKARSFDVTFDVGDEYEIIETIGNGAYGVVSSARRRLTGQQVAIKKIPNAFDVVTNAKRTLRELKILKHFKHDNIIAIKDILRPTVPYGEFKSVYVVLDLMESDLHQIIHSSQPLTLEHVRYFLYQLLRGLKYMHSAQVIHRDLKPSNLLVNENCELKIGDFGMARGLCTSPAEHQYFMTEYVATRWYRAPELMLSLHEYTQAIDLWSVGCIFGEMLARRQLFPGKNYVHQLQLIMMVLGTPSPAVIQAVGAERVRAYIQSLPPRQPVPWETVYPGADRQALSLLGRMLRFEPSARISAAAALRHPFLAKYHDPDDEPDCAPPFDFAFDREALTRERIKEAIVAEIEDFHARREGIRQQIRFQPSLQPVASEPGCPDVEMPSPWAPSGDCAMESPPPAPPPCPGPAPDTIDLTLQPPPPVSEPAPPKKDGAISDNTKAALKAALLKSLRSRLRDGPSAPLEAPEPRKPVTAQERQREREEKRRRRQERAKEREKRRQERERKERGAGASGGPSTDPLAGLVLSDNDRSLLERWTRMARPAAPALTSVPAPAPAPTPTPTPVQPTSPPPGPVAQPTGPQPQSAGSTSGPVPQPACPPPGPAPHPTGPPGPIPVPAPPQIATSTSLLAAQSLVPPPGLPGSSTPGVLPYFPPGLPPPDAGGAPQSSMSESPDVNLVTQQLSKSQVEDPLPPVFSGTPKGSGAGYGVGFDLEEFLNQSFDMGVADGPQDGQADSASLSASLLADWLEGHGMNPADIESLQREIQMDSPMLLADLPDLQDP

Structure (SMILES)	IC50 [1]	IC50 [2, 3]	IC50 [2]
O=C(NC1CCNCC1)c1cc(C(=O)c2c(F)cccc2Cl)c[nH]1 [Example 3, 4-(2-Chloro-6-fluorobenzoyl)-N-(piperidin-4-yl)-1H-pyrrole-2-carboxamide]	3500 nM	487 nM	–
O=C(NC1CCNCC1)c1cc(C(=O)c2c(Cl)ccc(Cl)c2F)c[nH]1 [Example 4, 4-(3,6-Dichloro-2-fluorobenzoyl)-N-(piperidin-4-yl)-1H-pyrrole-2-carboxamide]	2340 nM	–	–
CC(=O)N1CCC(NC(=O)c2cc(C(=O)c3c(Cl)ccc(Cl)c3F)c[nH]2)CC1 [Example 7, N-(1-Acetylpiperidin-4-yl)-4-(3,6-dichloro-2-fluorobenzoyl)-1H-pyrrole-2-carboxamide]	968 nM	87.8 nM	–
CS(=O)(=O)N1CCC(NC(=O)c2cc(C(=O)c3c(Cl)ccc(Cl)c3F)c[nH]2)CC1 [Example 9, 4-(3,6-Dichloro-2-fluorobenzoyl)-N-(1-(methylsulfonyl)piperidin-4-yl)-1H-pyrrole-2-carboxamide]	826 nM	144 nM	–
CN1CCN(c2ccc(NC(=O)c3cc(C(=O)c4c(F)cccc4Cl)c[nH]3)cn2)CC1 [Example 31, 4-(2-Chloro-6-fluorobenzoyl)-N-(6-(4-methylpiperazin-1-yl)pyridin-3-yl)-1H-pyrrole-2-carboxamide]	1180 nM	91.5 nM	–
O=C(Nc1cnn(C2CCNCC2)c1)c1cc(C(=O)c2c(F)cccc2Cl)c[nH]1 [Example 52, 4-(2-Chloro-6-fluorobenzoyl)-N-(1-(piperidin-4-yl)-1H-pyrazol-4-yl)-1H-pyrrole-2-carboxamide]	8810 nM	123 nM	–
O=C(Nc1cccnc1)c1cc(C(=O)c2c(F)cccc2F)c[nH]1 [Example 122, 4-(2,6-Difluorobenzoyl)-N-(pyridin-3-yl)-1H-pyrrole-2-carboxamide]	26000 nM	–	1120 nM
CC(C)(C)OC(=O)N1CCC(NC(=O)c2cc(C(=O)c3c(F)cccc3F)c[nH]2)CC1 [Example 123, tert-Butyl 4-(4-(2,6-difluorobenzoyl)-1H-pyrrole-2-carboxamido)piperidine-1-carboxylate]	25000 nM	2860 nM	–
O=C(NC1CCOCC1)c1cc(C(=O)c2c(F)cccc2F)c[nH]1 [Example 124, 4-(2,6-Difluorobenzoyl)-N-(tetrahydro-2H-pyran-4-yl)-1H-pyrrole-2-carboxamide]	23300 nM	2250 nM	–
O=C(NC1CCNCC1)c1cc(C(=O)c2c(F)cccc2F)c[nH]1 [Example 126, 4-(2,6-Difluorobenzoyl)-N-(piperidin-4-yl)-1H-pyrrole-2-carboxamide]	18300 nM	1260 nM	–
CN1CCC(NC(=O)c2cc(C(=O)c3c(F)cccc3F)c[nH]2)CC1 [Example 129, 4-(2,6-Difluorobenzoyl)-N-(1-methylpiperidin-4-yl)-1H-pyrrole-2-carboxamide]	6000 nM	1130 nM	–
O=C(Nc1cccnc1)c1cc(C(=O)c2cccc(Cl)c2Cl)c[nH]1 [Example 159, 4-(2,3-Dichlorobenzoyl)-N-(pyridin-3-yl)-1H-pyrrole-2-carboxamide]	24000 nM	1490 nM	–
O=C(NC1CCNCC1)c1cc(C(=O)c2cccc(Cl)c2Cl)c[nH]1 [Example 160, 4-(2,3-Dichlorobenzoyl)-N-(piperidin-4-yl)-1H-pyrrole-2-carboxamide]	30000 nM	1710 nM	–
O=C(NC1CCNCC1)c1cc(C(=O)c2c(F)cccc2C(F)(F)F)c[nH]1 [Example 161, 4-(2-Fluoro-6-(trifluoromethyl)benzoyl)-N-(piperidin-4-yl)-1H-pyrrole-2-carboxamide]	16700 nM	2410 nM	–
O=C(Nc1cncnc1)c1cc(C(=O)c2c(Cl)ccc(Cl)c2F)c[nH]1 [Example 173, 4-(3,6-Dichloro-2-fluorobenzoyl)-N-(pyrimidin-5-yl)-1H-pyrrole-2-carboxamide]	508 nM	316 nM	–
O=C(Nc1ccncc1)c1cc(C(=O)c2c(F)cccc2C(F)(F)F)c[nH]1 [Example 183, 4-(2-Fluoro-6-(trifluoromethyl)benzoyl)-N-(pyridin-4-yl)-1H-pyrrole-2-carboxamide]	7670 nM	1880 nM	–
O=C(Nc1cccnc1)c1cc(C(=O)c2c(F)cccc2C(F)(F)F)c[nH]1 [Example 184, 4-(2-Fluoro-6-(trifluoromethyl)benzoyl)-N-(pyridin-3-yl)-1H-pyrrole-2-carboxamide]	10300 nM	5680 nM	–
O=C(Nc1ccncc1)c1cc(C(=O)c2c(F)cccc2Cl)c[nH]1 [Example 187, 4-(2-Chloro-6-fluorobenzoyl)-N-(pyridin-4-yl)-1H-pyrrole-2-carboxamide]	2330 nM	–	602 nM
O=C(Nc1ccncc1)c1cc(C(=O)c2c(F)cccc2Br)c[nH]1 [Example 189, 4-(2-Bromo-6-fluorobenzoyl)-N-(pyridin-4-yl)-1H-pyrrole-2-carboxamide]	4000 nM	–	676 nM

Structure (SMILES)	IC50 [1]	IC50 [2, 3]	IC50 [2]
COCCOc1ccc(Cl)c(C(=O)c2c[nH]c(C(=O)Nc3cccnc3)c2)c1F [Example 258, 4-(6-Chloro-2-fluoro-3-(2-methoxyelhoxy)benzoyl)-N-(pyridin-3-yl)-1H-pyrrole-2-carboxamide]	–	653 nM	–
O=C(Nc1cccnc1)c1cc(C(=O)c2c(Cl)ccc(OC3CCOC3)c2F)c[nH]1 (stereo not shown) [Example 259, 4-(6-Chloro-2-fluoro-3-((tetrahydrofuran-3-yl)oxy)benzoyl)-N-(pyridin-3-yl)-1H-pyrrole-2-carboxamide]	–	483 nM	–
COCCOc1ccc(Cl)c(C(=O)c2c[nH]c(C(=O)Nc3cnn(C)c3)c2)c1F [Example 260, 4-(6-Chloro-2-fluoro-3-(2-methoxyethoxy)benzoyl)-N-(1-methyl-1H-pyrazol-4-yl)-1H-pyrrole-2-carboxamide]	–	1190 nM	–
Cn1cc(NC(=O)c2cc(C(=O)c3c(Cl)ccc(OC4CCOC4)c3F)c[nH]2)cn1 (stereo not shown) [Example 261, 4-(6-Chloro-2-fluoro-3-((tetrahydrofuran-3-yl)oxy)benzoyl)-N-(1-methyl-1H-pyrazol-4-yl)-1H-pyrrole-2-carboxamide]	–	553 nM	–
CS(=O)(=O)CCNc1ccc(NC(=O)c2cc(C(=O)c3c(Cl)ccc(Cl)c3F)c[nH]2)cn1 [Example 263, 4-(3,6-Dichloro-2-fluorobenzoyl)-N-(6-((2-(methylsulfonyl)ethyl)amino)pyridin-3-yl)-1H-pyrrole-2-carboxamide]	–	211 nM	–
O=Cc1ccc(F)c(C(=O)c2c[nH]c(C(=O)Nc3cccnc3)c2)c1F [Example 265, 4-(2,6-difluoro-3-formylbenzoyl)-N-(pyridin-3-yl)-1H-pyrrole-2-carboxamide]	–	7450 nM	–
O=C(Nc1cccnc1)c1cc(C(=O)c2c(F)ccc(C(=O)O)c2F)c[nH]1 [Example 266, 2,4-difluoro-3-(5-(pyridin-3-ylcarbamoyl)-1H-pyrrole-3-carbonyl) benzoic Acid]	–	1930 nM	–
O=C(Nc1cccnc1)c1cc(C(=O)c2c(Cl)ccc(OC3CCOCC3)c2F)c[nH]1 [Example 267, 4-(6-Chloro-2-fluoro-3-((tetrahydro-2H-pyran-4-yl)oxy)benzoyl)-N-(pyridin-3-yl)-1H-pyrrole-2-carboxamide]	–	1740 nM	–
Cn1cc(NC(=O)c2cc(C(=O)c3c(Cl)ccc(OC4CCOCC4)c3F)c[nH]2)cn1 [Example 268, 4-(6-Chloro-2-fluoro-3-((tetrahydro-2H-pyran-4-yl)oxy)benzoyl)-N-(1-methyl-1H-pyrazol-4-yl)-1H-pyrrole-2-carboxamide]	–	2800 nM	–
Cn1cc(NC(=O)c2cc(C(=O)c3c(F)cccc3Cl)c[nH]2)cn1 [Example 269, 4-(2-Chloro-6-fluorobenzoyl)-N-(1-methyl-1H-pyrazol-4-yl)-1H-pyrrole-2-carboxamide]	–	777 nM	–
O=C(Nc1cccnc1)c1cc(C(=O)c2c(Cl)ccc(OC(CO)CCl)c2F)c[nH]1 (stereo not shown) [Example 270, 4-(6-Chloro-3-((1-chloro-3-hydroxypropan-2-yl)oxy)-2-fluorobenzoyl)-N-(pyridin-3-yl)-1H-pyrrole-2-carboxamide]	–	458 nM	–
O=C(Nc1cccnc1)c1cc(C(=O)c2c(Cl)ccc(OC(CCl)CCl)c2F)c[nH]1 [Example 271, 4-(6-Chloro-3-((1,3-dichloropropan-2-yl)oxy)-2-fluorobenzoyl)-N-(pyridin-3-yl)-1H-pyrrole-2-carboxamide]	–	1260 nM	–
O=C(Nc1cccnc1)c1cc(C(=O)c2c(Cl)ccc(OC3COC3)c2F)c[nH]1 [Example 272, 4-(6-Chloro-2-fluoro-3-(oxetan-3-yloxy)beruoyl)-N-(pyridin-3-yl)-1H-pyrrole-2-carboxamide]	–	73 nM	–
Cn1cc(NC(=O)c2cc(C(=O)c3c(Cl)ccc(OC4COC4)c3F)c[nH]2)cn1 [Example 273, 4-(6-Chloro-2-fluoro-3-(oxetan-3-yloxy)benzoyl)-N-(1-methyl-1H-pyrazol-4-yl)-1H-pyrrole-2-carboxamide]	–	58.3 nM	–
CNCc1ccc(F)c(C(=O)c2c[nH]c(C(=O)Nc3cccnc3)c2)c1F [Example 274, 4-(2,6-difluoro-3-((methylamino)methyl)benzoyl)-N-(pyridin-3-yl)-1H-pyrrole-2-carboxamide]	–	3640 nM	–
O=C(Nc1ccc(OC2COC2)nc1)c1cc(C(=O)c2c(Cl)ccc(Cl)c2F)c[nH]1 [Example 279, 4-(3,6-Dichloro-2-fluorobenzoyl)-N-(6-(oxetan-3-yloxy)pyridin-3-yl)-1H-pyrrole-2-carboxamide]	–	874 nM	–
O=C(Nc1ccc(OCCO)nc1)c1cc(C(=O)c2c(Cl)ccc(Cl)c2F)c[nH]1 [Example 281, 4-(3,6-Dichloro-2-fluorobenzoyl)-N-(6-(2-hydroxyethoxy)pyridin-3-yl)-1H-pyrrole-2-carboxamide]	–	390 nM	–
COCCN(CCOC)Cc1ccc(NC(=O)c2cc(C(=O)c3c(Cl)ccc(Cl)c3F)c[nH]2)cn1 [Example 283, N-(6-((bis(2-methoxyethyl)amino)methyl)pyridin-3-yl)-4-(3,6-dichloro-2-fluorobenzoyl)-1H-pyrrole-2-carboxamide]	–	117 nM	–
